Read-outs that look alike come from different tables or passages of the source.
Columns and labels:
[1] = tested on: isolated mouse ileum; assay: In vitro Magnus assay, EFS-induced ileum contraction; conditions: for Ileum contraction at 1 μM (% of cont.) Mean: isolated mouse ileum with EFS
Description: After overnight fasting, mice were sacrificed by decapitation. The ileum was quickly dissected out and suspended in ice-cold Krebs solution with the following composition (in mM): NaCl, 120.7; KCl, 5.9; CaCl2, 2.5; MgCl2, 1.2; […], 15.5; NaH2PO4, 1.2; and glucose, 11.5. Longitudinal segments of ileum (10-15 mm long) were detached of mesentery and adipose tissue, and mounted in organ baths containing 10 mL of Krebs solution aerated with 95% O2/5% CO2. Bath temperature was maintained at 37° C. The isolated ileum was given a passive load of 0.5 g. The contractile response of the isolated ileum was continuously recorded with isometric transducer (MLT050/A, ADInstruments, New South Wales, Australia) and recorder (PowerLab 8/30 ML870 and Octal Bridge Amp ML228, ADInstruments).
Platinum electrodes (3-20 mm apart, Iwashiya Kishimoto Medical Instruments, Kyoto, Japan) were mounted on both sides of the isolated ileum. The electrodes were connected to an electric stimulator (SEG-3104, Nihon Kohden, Tokyo, Japan) and an amplifier (SIG-3140, Nihon Kohden) for EFS with square wave pulses (20 V over the electrodes, 50 ms duration, and 20 Hz frequency); pulse trains were lasting for 10 s with 20 s pause.
The EFS produced sustained tonic contraction, followed by relaxation. The contraction was measured as the maximum strength from the baseline. The effects of experimental substances on the maximum contraction were measured. At the beginning of each experiment, a series of control EFS cycles was tested for more than 1 h to observe stability of contractile response. The ileum with a steady contractile response elicited by control EFS during the 1 h was used to investigate the effect of test compounds.
After responses to control EFS reached a steady-state, the compounds were added to the Magnus bath cumulatively, without washing between the subsequent doses. The interval between two adjacent doses was always at least 5 min, thus the isolated preparations receive at least 10 pulses in each dose of the compounds. After cumulating all doses of compounds, the bath was washed three times, and the ilea were allowed to rest for further 30 min. The effect of each concentration of the compounds on ileum contraction induced by EFS was calculated from the average value of 10 responses of the maximum strength. Then the ileum contractile response was expressed as a ratio (%) of the mean maximum contraction to that obtained with the pre-treated DMSO (solvent) to obtain concentration-response curve. Due to very small size of relaxations, the effects of the compounds on them was not be analyzed.

[2] = target: T1, human M1Rs (Homo sapiens, UniProt P11229); assay: Ca2+ flux assay in CHO-K1 cells stably expressing human M1R (FLIPR), agonist and PAM mode, operational model fit; assay type: cell-based; conditions: for log β Mean: allosteric effect of PAM on signaling efficacy of ACh; for log β Mean / Log TB Mean: operational model; for EC50: mean of three independent experiments; for Log TB Mean: intrinsic agonistic efficacy
T1 sequence (P11229 1-460): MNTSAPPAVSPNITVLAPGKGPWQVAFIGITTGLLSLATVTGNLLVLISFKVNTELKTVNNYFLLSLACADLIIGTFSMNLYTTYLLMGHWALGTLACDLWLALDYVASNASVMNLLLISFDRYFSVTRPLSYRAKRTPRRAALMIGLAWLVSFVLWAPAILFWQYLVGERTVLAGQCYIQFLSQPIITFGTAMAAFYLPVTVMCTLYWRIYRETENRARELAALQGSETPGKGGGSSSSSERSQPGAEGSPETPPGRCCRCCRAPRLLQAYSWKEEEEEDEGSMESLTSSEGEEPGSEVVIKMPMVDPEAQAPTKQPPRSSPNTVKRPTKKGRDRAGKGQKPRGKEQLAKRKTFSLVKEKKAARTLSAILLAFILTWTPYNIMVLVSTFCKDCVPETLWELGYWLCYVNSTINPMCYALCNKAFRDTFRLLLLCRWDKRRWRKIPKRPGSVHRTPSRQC
Description: Chinese hamster ovary (CHO-K1) cells stably expressing human M1Rs (hM1R-CHO) were plated in black-walled clear-bottomed 384-well plates (5,000 cells/well) and cultured overnight at 37° C. in the presence of 5% CO2 in Ham's F-12 medium supplemented with 10% FBS and 100 U/mL penicillin-streptomycin. The following day, the medium was removed and incubated with assay buffer (Hank's balanced salt solution with 20 mM HEPES, 0.1% fatty acid free BSA) containing 2.5 μg/mL Fluo-4 AM and 1.25 mM probenecid for 30 min at 37° C. in the presence of 5% CO2. After 30 min incubation at room temperature, cells were stimulated with compounds. In this experiment, ACh and each PAM were added to the cells simultaneously. Calcium flux was measured using a fluorescence imaging plate reader (FLIPR) tetra system (Molecular Devices, Sunnyvale, CA).
[formula] the pharmacological effect and Emax denotes the maximum possible effect; [A] and [B] are the concentrations of ACh and PAM, respectively; KA and KB denote the equilibrium dissociation constants of ACh and PAM, respectively; τA and τB represent the operational measures of ACh and PAM efficacy, respectively; a is the binding cooperativity between ACh and PAM (activity to enhance ACh affinity to M1R); β is the magnitude of the allosteric effect of PAM on the signaling efficacy of ACh; n denotes the slope factor. For the analysis of functional data, the equilibrium dissociation constant of each PAM and the cooperativity between ACh and each PAM were fixed to those determined from the binding experiments.
EC50, eliciting 50% of the maximal response of an endogenous ligand, ACh, reflects the agonistic activity for M1R under conditions without ACh. […] Results of the in vitro functional parameters for M1R represent the mean and S.E.M. of three independent experiments. N/A stands for “not available”. PAM means positive allosteric modulator (Table 1).

[3] = target: M3R (Homo sapiens, UniProt P20309); assay: Ca2+ flux PAM activity against other muscarinic receptor subtypes, M3R; assay type: cell-based; conditions: in the presence of EC20 ACh; read-out: PAM activity against other muscarinic receptor subtypes M3R pIP
[4] = target: T2, M4R (Homo sapiens, UniProt P08173); assay: Ca2+ flux PAM activity against other muscarinic receptor subtypes, M4R; assay type: cell-based; conditions: in the presence of EC20 ACh; read-out: PAM activity against other muscarinic receptor subtypes M4R pIP (converted)
T2 sequence (P08173 1-479): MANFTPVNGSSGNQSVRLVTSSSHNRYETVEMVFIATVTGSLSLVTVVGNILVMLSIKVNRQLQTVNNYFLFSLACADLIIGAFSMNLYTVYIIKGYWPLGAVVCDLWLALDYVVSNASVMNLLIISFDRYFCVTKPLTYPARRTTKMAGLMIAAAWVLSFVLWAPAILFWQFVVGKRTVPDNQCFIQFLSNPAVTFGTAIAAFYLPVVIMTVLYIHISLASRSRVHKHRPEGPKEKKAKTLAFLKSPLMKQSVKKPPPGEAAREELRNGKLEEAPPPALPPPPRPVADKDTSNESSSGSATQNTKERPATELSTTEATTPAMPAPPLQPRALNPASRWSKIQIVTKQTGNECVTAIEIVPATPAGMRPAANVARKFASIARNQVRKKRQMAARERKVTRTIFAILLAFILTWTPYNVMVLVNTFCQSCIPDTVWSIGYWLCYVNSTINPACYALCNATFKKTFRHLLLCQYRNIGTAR

[5] = inflection point in the presence of EC20 ACh, read-out: M1PAM activity pIP Mean (converted)
[6] = without ACh, read-out: M1 agonist activity pEC50 Mean (converted)

Sequence of M3R (P20309 whole entry): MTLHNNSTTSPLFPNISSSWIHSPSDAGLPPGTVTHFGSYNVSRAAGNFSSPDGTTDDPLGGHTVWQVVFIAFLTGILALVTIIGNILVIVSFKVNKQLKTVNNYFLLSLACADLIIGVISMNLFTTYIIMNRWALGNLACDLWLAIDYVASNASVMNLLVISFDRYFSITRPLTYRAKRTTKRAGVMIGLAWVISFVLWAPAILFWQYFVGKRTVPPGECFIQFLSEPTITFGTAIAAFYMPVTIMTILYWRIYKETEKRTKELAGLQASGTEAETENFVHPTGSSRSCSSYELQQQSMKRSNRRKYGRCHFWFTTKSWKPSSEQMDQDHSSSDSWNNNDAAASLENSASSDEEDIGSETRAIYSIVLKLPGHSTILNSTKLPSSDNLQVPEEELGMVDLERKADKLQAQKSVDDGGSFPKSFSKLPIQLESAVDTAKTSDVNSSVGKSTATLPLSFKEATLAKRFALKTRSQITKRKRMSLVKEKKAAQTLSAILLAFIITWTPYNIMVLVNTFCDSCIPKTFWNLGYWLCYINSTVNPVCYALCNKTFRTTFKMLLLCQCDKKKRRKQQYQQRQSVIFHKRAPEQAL

Structure (SMILES) | augmentation of EFS-induced ileum contraction ([1]; 0.1 nM-1 μM) | Ileum contraction at 1 μM (% of cont.) Mean [1] | augmentation of EFS-induced ileum contraction with telenzepine ([1]; with 1 nM of telenzepine) | log β Mean [2] | EC50 [2, 5] | Log TB Mean [2] | EC50 [2, 6] | EC50 [3] | EC50 [4] | effect on EFS-induced ileum contraction ([1]; up to 1 μM)
Cn1ccc(-c2ccc(CN3Cc4cccc(O[C@H]5CCCC[C@@H]5O)c4C3=O)cc2)n1 [Compound A, 7-(((1S,2S)-2-hydroxycyclohexyl)oxy)-2-(4-(1-methyl-1H-pyrazol-3-yl)benzyl)isoindolin-1-one] | concentration-dependent augmentation | 116 % of cont. | suppressed | 0.13 | 10.2 nM | 2.06 | 72.4 nM | > 10 µM | 1 µM | –
Cn1cc(-c2ccc(CN3Cc4cccc(Oc5c(F)cccc5C#N)c4C3=O)cc2)cn1 [Compound B, 3-fluoro-2-((2-(4-(1-methyl-1H-pyrazol-4-yl)benzyl)-3-oxo-2,3-dihydro-1H-isoindol-4-yl)oxy)benzonitrile] | – | 97 % of cont. | – | 0.58 | 40.7 nM | −0.10 | 676 nM | > 10 µM | > 10 µM | no effect
Cn1cc(-c2ccc(Cc3cc4c(=O)n([C@H]5CCCC[C@@H]5O)cnc4c4ccccc34)cn2)cn1 [Compound C, 3-((1S,2S)-2-hydroxycyclohexyl)-6-((6-(1-methyl-1H-pyrazol-4-yl)pyridin-3-yl)methyl)benzo[h]quinazoline-4(3H)-one, reference compound] | – | 104 % of cont. | – | −0.39 | 2.09 nM | 1.49 | 1.62 nM | > 10 µM | > 10 µM | –
O=c1c2cn(Cc3ccc(-n4cccn4)cc3)c3ccccc3c-2nn1-c1ccccc1F [Compound E, 2-(2-fluorophenyl)-5-(4-(1H-pyrazol-1-yl)benzyl)-2,5-dihydro-3H-pyrazolo[4,3-c]quinolin-3-one, reference compound] | – | 106 % of cont. | – | −0.23 | 8.51 nM | 0.65 | 219 nM | > 10 µM | > 10 µM | –
Cn1cc(-c2ccc(CN3Cc4cccc(OCCN5CCCCC5)c4C3=O)cc2)cn1 [Compound F, 2-(4-(1-methyl-1H-pyrazol-4-yl)benzyl)-7-(2-(piperidin-1-yl)ethoxy)isoindolin-1-one] | – | 102 % of cont. | – | 0.87 | 79.4 nM | 0.15 | 2090 nM | > 10 µM | > 10 µM | –
Cn1cc(-c2ccc(CN3Cc4cccc(-c5ccn[nH]5)c4C3=O)cc2)cn1 [Compound G, 2-(4-(1-methyl-1H-pyrazol-4-yl)benzyl)-7-(1H-pyrazol-5-yl)isoindolin-1-one] | – | 93 % of cont. | – | 0.85 | 275 nM | – | > 10000 nM | > 10 µM | > 10 µM | –

From patent US12298319B2, “Method for measuring alpha value of muscarinic M1 receptor positive allosteric modulators” (Takeda Pharmaceutical Company Limited, priority 2017, dated 2025)
